Tests used:
Assay in all cases: relative viability (nuclei count vs DMSO), 5 days (fraction); higher = more cells survive
Hydroxychloroquine = compound: CCN(CCO)CCCC(C)Nc1ccnc2cc(Cl)ccc12 [Hydroxychloroquine]
Summary of the method: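 Following overnight incubation at 37 °C, lung cancer cell lines in 1536-well plates were pinned with five library-drug doses (not always all listed) in √10 steps on vehicle-anchored plates. The cells then spent 5 days without medium change before a combined fix, permeabilisation and Hoechst stain, 4× imaging and MetaXpress nuclear counts. Viability is the treated-to-vehicle ratio of nuclei, taken as the median across plates. Only plates with control CV below 25% and at least one doubling passed.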

[1] = compound: CCN(CCO)CCCC(C)Nc1ccnc2cc(Cl)ccc12 [Hydroxychloroquine] + CC(=O)c1c(C)c2cnc(Nc3ccc(N4CCNCC4)cn3)nc2n(C2CCCC2)c1=O [Palbociclib] (partner 0.5 µM)
Summary of the method: (§1)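 Lung cancer cell lines in 1536-well plates got either a single drug or a fixed anchor-drug dose together with five library-drug doses (not always all listed) in √10 steps, by pin tool, on the day after seeding. Nuclei were counted after 5 days, and relative viability is the treated-to-vehicle ratio of nuclei counts. Values are medians of duplicate plates.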

[2] = compound: CCN(CCO)CCCC(C)Nc1ccnc2cc(Cl)ccc12 [Hydroxychloroquine] + COc1cccc2cc(-c3nc([C@H]4CC[C@H](C(=O)O)CC4)n4ncnc(N)c34)[nH]c12 [OSI-027] (partner 0.5 µM)
Summary of the method: as §1

[3] = compound: CCN(CCO)CCCC(C)Nc1ccnc2cc(Cl)ccc12 [Hydroxychloroquine] + COc1cc2c(Oc3ccc(NC(=O)C4(C(=O)Nc5ccc(F)cc5)CC4)cc3F)ccnc2cc1OCCCN1CCOCC1 [Foretinib] (partner 0.25 µM)
Summary of the method: as §1

Cell Line | relative viability (Hydroxychloroquine; 0.5 µM) | relative viability (Hydroxychloroquine; 1.581 µM) | relative viability (Hydroxychloroquine; 5 µM) | relative viability (Hydroxychloroquine; 15.81 µM) | relative viability (Hydroxychloroquine; 50 µM) | relative viability ([1]; first compound 0.5 µM) | relative viability ([1]; first compound 1.581 µM) | relative viability ([1]; first compound 5 µM) | relative viability ([1]; first compound 15.81 µM) | relative viability ([1]; first compound 50 µM) | relative viability ([2]; first compound 0.5 µM) | relative viability ([2]; first compound 1.581 µM) | relative viability ([2]; first compound 5 µM) | relative viability ([2]; first compound 15.81 µM) | relative viability ([2]; first compound 50 µM) | relative viability ([3]; first compound 0.5 µM) | relative viability ([3]; first compound 1.581 µM) | relative viability ([3]; first compound 5 µM) | relative viability ([3]; first compound 15.81 µM) | relative viability ([3]; first compound 50 µM)
HCC-78 | 1.04 | 0.903 | 1.03 | 1.01 | 0.94 | 0.469 | 0.48 | 0.483 | 0.527 | 0.451 | 0.377 | 0.376 | 0.366 | 0.323 | 0.349 | 0.602 | 0.498 | 0.482 | 0.488 | 0.553
HCC-366 | 1.01 | 0.981 | 0.986 | 1.06 | 1.03 | 0.324 | 0.406 | 0.366 | 0.381 | 0.665 | 0.896 | 0.932 | 0.673 | 0.862 | 1.05 | 0.938 | 0.891 | 0.902 | 0.945 | 0.923
HCC-827 | 1.03 | 1.02 | 1.04 | 1.02 | 1.06 | 0.413 | 0.456 | 0.467 | 0.466 | 0.521 | 0.802 | 0.572 | 0.821 | 1.03 | 0.763 | 1.13 | 0.956 | 1.05 | 1.2 | 1.08
HOP-62 | 1.04 | 1.01 | 1.05 | 1.08 | 1.08 | 0.486 | 0.429 | 0.444 | 0.487 | 0.548 | 0.877 | 0.892 | 0.843 | 0.825 | 0.767 | 1.15 | 1.24 | 1.14 | 1.27 | 1.23
IA-LM | 0.922 | 0.971 | 0.902 | 0.962 | 0.959 | – | – | – | – | – | – | – | – | – | – | 1.15 | 1.31 | 1.12 | 1.26 | 1.27
LC-2-ad | 1 | 0.982 | 0.996 | 0.998 | 1.02 | 0.454 | 0.454 | 0.486 | 0.555 | 0.476 | 0.953 | 0.793 | 0.853 | 0.805 | 0.868 | 0.956 | 0.895 | 0.895 | 0.921 | 1.05
LCLC-97TM1 | 1.14 | 1.06 | 1.03 | 0.944 | 0.946 | 0.223 | 0.227 | 0.313 | 0.275 | 0.21 | 0.614 | 0.465 | 0.569 | 0.563 | 0.622 | 0.989 | 0.934 | 0.979 | 0.983 | 1.01
LCLC-103H | 1.01 | 0.932 | 0.998 | 1 | 1.01 | 0.498 | 0.496 | 0.524 | 0.461 | 0.469 | 0.482 | 0.488 | 0.547 | 0.465 | 0.562 | 0.776 | 0.707 | 0.848 | 0.893 | 0.887
LK-2 | 1.01 | 0.96 | 0.941 | 1.14 | 1.24 | 0.884 | 0.832 | 0.762 | 0.809 | 0.697 | 0.201 | 0.198 | 0.155 | 0.206 | 0.208 | 1.31 | 1.41 | – | 1.28 | 0.955
LOU-NH91 | 0.96 | 0.794 | 0.944 | 0.95 | 0.901 | 0.534 | 0.562 | 0.5 | 0.55 | 0.531 | 0.667 | 0.616 | 0.758 | 0.701 | 0.736 | 0.921 | 0.831 | 0.949 | 0.94 | 0.914
LU99A | 1.01 | 0.874 | 0.938 | 0.951 | 1.02 | 0.356 | 0.383 | 0.377 | 0.444 | 0.473 | 0.304 | 0.258 | 0.327 | 0.283 | 0.329 | 0.914 | 0.724 | 0.786 | 0.789 | 0.861
LXF-289 | 1.06 | 1.01 | 1.03 | 1.02 | 1.07 | 0.577 | 0.588 | 0.656 | 0.575 | 0.602 | 0.78 | 0.77 | 0.751 | 0.781 | 0.792 | 0.96 | 0.959 | 0.969 | 1.03 | 1.08
NCI-H23 | 1.04 | 0.809 | 0.961 | 0.915 | 1.01 | 0.499 | 0.487 | 0.548 | 0.464 | 0.477 | 0.684 | 0.447 | 0.572 | 0.535 | 0.572 | 1.04 | 0.968 | 0.979 | 0.99 | 0.903
NCI-H596 | 1.04 | 0.934 | 0.892 | 1.03 | 1.15 | – | – | – | – | – | 0.755 | 0.672 | 0.625 | 0.761 | 0.883 | 0.758 | 0.669 | 0.875 | 0.823 | 0.855
NCI-H1299 | 1.02 | 0.938 | 1.01 | 1.02 | 1.02 | – | – | – | – | – | – | – | – | – | – | 1.09 | 1.05 | 1.14 | 1.12 | 1.06
NCI-H1563 | 0.946 | 0.744 | 0.912 | 0.99 | 0.966 | – | – | – | – | – | 0.736 | 0.625 | 0.79 | 0.794 | 0.716 | 0.886 | 0.804 | 0.88 | 0.825 | 0.965
NCI-H1648 | 0.817 | 1.09 | 0.775 | 0.992 | 0.825 | 0.277 | 0.264 | 0.266 | 0.211 | 0.288 | – | 0.283 | 0.273 | 0.254 | 0.274 | – | – | – | – | –
NCI-H1703 | 0.912 | 0.79 | 0.946 | 0.924 | 0.898 | – | – | – | – | – | – | – | – | – | – | 0.402 | 0.443 | 0.313 | 0.347 | 0.379
NCI-H1792 | 0.945 | 1.03 | 0.859 | 0.783 | 0.776 | 0.696 | 0.683 | 0.584 | 0.657 | 0.68 | 0.797 | 0.729 | 0.715 | 1.04 | 0.825 | – | – | – | – | –

Source: the supplement of paper PMC10307832
